Literature values in patent publication US12128066B2, “Product for treating skin fungus and its micronized preparation method” (priority 2021, dated 2024).

Conditions: in water or organic solvents

## S=[Se]=S [Selenium disulfide]
  Solubility: almost insoluble
